Legend:
[1] = test system: AMARE; experiment: Pre-emergence herbicidal action against AMARE; type: in vivo, Amaranthus retroflexus; conditions: 320 g/ha
Outline: (§1)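 Visual scoring after 3 weeks in the greenhouse gives percent activity (100% = dead, 0% = like untreated). Compounds, formulated as WP or EC, were applied to the soil surface over freshly sown seeds in sandy loam, water rate 600 to 800 L/ha plus 0.2% wetting agent.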

[2] = test system: DIGSA; experiment: Post-emergence herbicidal action against DIGSA; type: in vivo, Digitaria sanguinalis; conditions: 80 g/ha, visual assessment about 3 weeks after treatment vs untreated controls
Outline: (§2)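 Herbicidal action is rated visually in percent against untreated controls, where 100% means dead plants and 0% means no difference. Ratings come about 3 weeks after foliar spraying of one-leaf-stage plants with aqueous WP or EC preparations plus 0.2% wetting agent at 600 to 800 l/ha.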

[3] = test system: ECHCG; experiment: Pre-emergence herbicidal action against ECHCG; type: in vivo, Echinochloa crus-galli; conditions: 320 g/ha, scored visually after 3 weeks vs untreated controls
Outline: as §1

[4] = test system: SETVI; experiment: Pre-emergence herbicidal action against SETVI; type: in vivo, Setaria viridis; conditions: 320 g/ha, scored visually after 3 weeks vs untreated controls
Outline: as §1

[5] = test system: DIGSA; experiment: Pre-emergence herbicidal action against DIGSA; type: in vivo, Digitaria sanguinalis; conditions: 320 g/ha, scored visually after 3 weeks vs untreated controls
Outline: as §1

[6] = test system: VERPE; experiment: Pre-emergence herbicidal action against VERPE; type: in vivo, Veronica persica; conditions: 320 g/ha
Outline: as §1

[7] = test system: ECHCG; experiment: Post-emergence herbicidal action against ECHCG; type: in vivo, Echinochloa crus-galli; conditions: 80 g/ha, visual assessment about 3 weeks after treatment vs untreated controls
Outline: as §2

[8] = test system: ALOMY; experiment: Post-emergence herbicidal action against ALOMY; type: in vivo, Alopecurus myosuroides; conditions: 80 g/ha, visual assessment after about 3 weeks
Outline: as §2

[9] = test system: ALOMY; experiment: Pre-emergence herbicidal action against ALOMY; type: in vivo, Alopecurus myosuroides; conditions: 320 g/ha, scored visually after 3 weeks vs untreated controls
Outline: as §1

[10] = test system: VIOTR; experiment: Post-emergence herbicidal action against VIOTR; type: in vivo, Viola tricolor; conditions: 80 g/ha, visual assessment about 3 weeks after treatment vs untreated controls
Protocol: Seeds of monocotyledonous and dicotyledonous weed and crop plants are laid out in sandy loam soil in wood-fiber pots, covered with soil and cultivated in a greenhouse under good growth conditions. 2 to 3 weeks after sowing, the test plants are treated at the one-leaf stage. The compounds of the invention, formulated in the form of wettable powders (WP) or as emulsion concentrates (EC), are then sprayed onto the green parts of the plants as aqueous suspension or emulsion at a water application rate equating to 600 to 800 l/ha with addition of 0.2% wetting agent. After the test plants have been left to stand in the greenhouse under optimal growth conditions for about 3 weeks, the action of the preparations is assessed visually in comparison to untreated controls (herbicidal action in percent (%): 100% activity=the plants have died, 0% activity=like control plants).

[11] = test system: SETVI; experiment: Post-emergence herbicidal action against SETVI; type: in vivo, Setaria viridis; conditions: 80 g/ha, visual assessment about 3 weeks after treatment vs untreated controls
Outline: as §2

[12] = test system: AVEFA; experiment: Post-emergence herbicidal action against AVEFA; type: in vivo, Avena fatua; conditions: 80 g/ha, visual assessment after about 3 weeks
Outline: as §2

[13] = test system: LOLRI; experiment: Pre-emergence herbicidal action against LOLRI (Table 8, titled post-emergence at 320 g/ha); type: in vivo, Lolium rigidum; conditions: table stands in the pre-emergence section
Outline: as §1

[14] = test system: LOLRI; experiment: Post-emergence herbicidal action against LOLRI; type: in vivo, Lolium rigidum; conditions: 80 g/ha, visual assessment about 3 weeks after treatment vs untreated controls
Outline: as §2

[15] = test system: VIOTR; experiment: Pre-emergence herbicidal action against VIOTR; type: in vivo, Viola tricolor; conditions: 320 g/ha
Outline: as §1

[16] = test system: AVEFA; experiment: Pre-emergence herbicidal action against AVEFA; type: in vivo, Avena fatua; conditions: 320 g/ha, scored visually after 3 weeks vs untreated controls
Outline: as §1

[17] = test system: MATIN; experiment: Pre-emergence herbicidal action against MATIN; type: in vivo; conditions: 320 g/ha
Outline: as §1

[18] = test system: POLCO; experiment: Pre-emergence herbicidal action against POLCO; type: in vivo, Polygonum convolvulus; conditions: 320 g/ha
Outline: as §1

Structure (SMILES) | Pre-emergence action against AMARE in % [1] [%] | Post-emergence action against DIGSA in % [2] [%] | Pre-emergence action against ECHCG in % [3] [%] | Pre-emergence action against SETVI in % [4] [%] | Pre-emergence action against DIGSA in % [5] [%] | Pre-emergence action against VERPE in % [6] [%] | Post-emergence action against ECHCG in % [7] [%] | Post-emergence action against ALOMY in % [8] [%] | Pre-emergence action against ALOMY in % [9] [%] | Post-emergence action against VIOTR in % [10] [%] | Post-emergence action against SETVI in % [11] [%] | Post-emergence action against AVEFA in % [12] [%] | Pre-emergence herbicidal action against LOLRI in % [13] [%] | Post-emergence action against LOLRI in % [14] [%] | Pre-emergence action against VIOTR in % [15] [%] | Pre-emergence action against AVEFA in % [16] [%] | Pre-emergence action against MATIN in % [17] [%] | Pre-emergence action against POLCO in % [18] [%]
CC#Cc1cc(C)c(C2=C(OC(=O)OCC)C3(CCC(COCC)C3)NC2=O)c(Br)c1 (centres unmarked) [Example P-35] | 100 | 100 | 100 | 100 | 100 | 80 | 90 | 100 | 100 | 90 | 100 | 80 | 100 | 100 | 100 | 100 | – | –
CC#Cc1cc(C)c(C2=C(OC(=O)OCC)C3(CCC(COCC)C3)NC2=O)c(OC)c1 (centres unmarked) [Example P-49] | – | 90 | 100 | 100 | 100 | 80 | 100 | 100 | 100 | 80 | 100 | 90 | 100 | 100 | 100 | 100 | 80 | –
C=CCOCC1CCC2(C1)NC(=O)C(c1c(C)cc(C#CC)cc1Cl)=C2OC(=O)OCC (centres unmarked) [Example P-71] | – | 90 | 100 | 100 | 100 | 90 | 100 | 80 | 100 | 100 | 100 | 80 | 100 | 80 | 100 | 90 | – | 90
C=CCOCC1CCC2(C1)NC(=O)C(c1c(C)cc(C#CC)cc1Cl)=C2OC(=O)OCC (centres unmarked) [Example P-72] | – | 90 | 100 | 100 | 100 | 80 | 100 | 80 | 90 | 90 | 100 | – | 100 | 80 | 100 | – | – | 100
CC#Cc1cc(F)c(C2=C(OC(=O)OCC)C3(CCC(COCCC)C3)NC2=O)c(OC)c1 (centres unmarked) [Example P-82] | 90 | 90 | 100 | 100 | 100 | – | 100 | 100 | 100 | 80 | 100 | – | 100 | 100 | 90 | 90 | – | 100
